Assay [1] relates to IMR-32. Description: Evaluated for neuronal cell protectivity against beta-amyloid (25,35) insult towards IMR-32 human neuroblastoma cell. Format: functional. The following applies: read-out: ED50 (the source's name).
Assay [2] has as its system PC-12. Description: Evaluated for neuronal cell protectivity against beta-amyloid (25,35) insult towards PC12 rat pheochromocytoma cell. In kind it is functional. The note with it: read-out: ED50 (the source's name).
Assay [3] concerns PC-12. Description: Evaluated for neuronal cell protectivity against beta-amyloid (25,35) insult towards PC12 rat pheochromocytoma cell; No protection. Format: functional.
The subject of assay [4] is IMR-32. Description: (§1) Evaluated for neuronal cell protectivity against beta-amyloid (25,35) insult towards IMR-32 human neuroblastoma cell; No protection. Format: functional.
Assay [5] relates to IMR-32. The description is as §1. Format: functional, cell-based.
Assay [6] has as its system PC-12. Description: Evaluated for neuronal cell protectivity against beta-amyloid (25,35) insult towards PC12 rat pheochromocytoma cell.

≈ marks a conversion by molar mass, not a printed value.

In the case of `COc1cc(/C=C/C(=O)COC(=O)/C=C/c2cccc(O)c2)ccc1O`, the EC50 turned out to be 15.8 µg/mL (≈ 44.6 µM) in assay [1] and 13.2 µg/mL (≈ 37.3 µM) in assay [2].
For `COc1cccc(/C=C/C(=O)OCC(=O)/C=C/c2ccc(O)c(OC)c2)c1`, the ED50 entry in assay [3] and in assay [4] was “No protection” in each case.
Regarding VITAMIN E, the ED50 result in assay [3] and in assay [4] was “No protection” throughout.
Turning to `COc1ccc(/C=C/C(=O)OCC(=O)/C=C/c2ccc(O)c(OC)c2)cc1`, the ED50 entry in assay [3] and in assay [4] was “No protection” throughout.
`COc1cc(/C=C/C(=O)COC(=O)/C=C/c2ccc(C)cc2)ccc1O`: the ED50 result in assay [3] and in assay [4] was “No protection” in each case.
Take `COc1cc(/C=C/C(=O)COC(=O)/C=C/c2ccccc2)ccc1O`: the ED50 entry in assay [3] and in assay [4] was “No protection” each time.
Take `COc1cc(/C=C/C(=O)COC(=O)/C=C/c2ccc(OC(C)=O)cc2)ccc1O`: the ED50 entry in assay [3] and in assay [4] was “No protection” throughout.
Take `COc1cc(/C=C/C(=O)CC(=O)/C=C/c2ccc(O)c(OC)c2)ccc1O` [CURCUMIN]: the EC50 is 7.4 µg/mL (≈ 20.1 µM) in assay [1] and 7.1 µg/mL (≈ 19.3 µM) in assay [2].
`COc1cc(/C=C/C(=O)COC(=O)/C=C/c2ccc(OC(C)=O)c(OC(C)=O)c2)ccc1O`: the ED50 entry in assay [5] and in assay [3] was “No protection” throughout.
On to `COc1cc(/C=C/C(=O)COC(=O)/C=C/c2ccc(O)cc2)ccc1O`, for which the EC50 in assay [4] (read-out: ED50 (the source's name)) is 1.2 µg/mL (≈ 3.39 µM). In assay [6], this compound registered an ED50 of 0.7 µg/mL (≈ 1.98 µM).
Consider `COc1cc(/C=C/C(=O)COC(=O)/C=C/c2ccc(Cl)cc2)ccc1O`, for which the ED50 result in assay [3] and in assay [4] was “No protection” each time.
Regarding `COc1cc(/C=C/C(=O)COC(=O)/C=C/c2ccc(O)c(O)c2)ccc1O`, the results for the EC50 in assay [1] and in assay [2] were 7.9 µg/mL (≈ 21.3 µM) and 7.3 µg/mL (≈ 19.7 µM), respectively.
For `COc1cc(/C=C/C(=O)COC(=O)/C=C/c2ccc3c(c2)OCO3)ccc1O`, the ED50 entry in assay [3] and in assay [4] was “No protection” in each case.
On to `COc1cc(/C=C/C(=O)COC(=O)/C=C/c2ccc(Br)cc2)ccc1O`, for which the ED50 entry in assay [3] and in assay [4] was “No protection” in each case.
On to `COc1cc(/C=C/C(=O)COC(=O)/C=C/c2cccc(OC(C)=O)c2)ccc1O`, for which the ED50 entry in assay [3] and in assay [4] was “No protection” throughout.
As to `COc1cc(/C=C/C(=O)COC(=O)/C=C/c2ccc(O)c(OC)c2)ccc1O` [CALEBI A], the EC50 stood at 1.4 µg/mL (≈ 3.64 µM) in assay [1] and 1 µg/mL (≈ 2.6 µM) in assay [2].
